Results from US6294650A, “Inhibition of mammalian telomerase by peptide nucleic acids” (The Board of Regents, University of Texas System, priority 1999, dated 2001).
Like-named read-outs stand apart in the source and are kept apart here.

How the values were obtained:
[1] = tested on: complementary DNA oligonucleotides; test: Melting temperature of PNA:DNA duplexes, absorbance at 260 nm; type: physicochemical; settings: PNA with complementary DNA, 20 μM each, 1.0 M phosphate pH 7.6
Procedure: Determinations were done in a volume of 0.5 mL in a capped cuvette. […] Absorbance was recorded from 25° C. to 90° C. in 4° C. or 5° C. increments using a 2 minute equilibration time between each measurement. DNA oligonucleotides used for measuring Tm values, and their complementary PNAs were as follows; [NT] […] ID NO:31) ([…] ID NO:32) (PNAs 7, 17). Melting temperatures were measured (Tm) of duplexes between PNAs and their DNA complements to ensure that the PNAs used in these studies could form duplexes with complementary sequences at the assay temperature of 25° C. DNA oligonucleotides were used because employment of DNA rather than RNA facilitated analysis of the large number of PNAs that required assay. Comparison to RNA:PNA melting temperatures is justified because Tm 's for PNA:DNA and PNA:RNA hybrids are similar.

human telomerase [2] = test: TRAPeze telomerase assay, HME50-5 cell lysate preincubated with PNA (PNA scanning); type: biochemical; settings: 25° C., 30 min preincubation
Procedure: The source of telomerase was human immortal primary breast epithelial cell line (HME50-5). Cultured cells (10^5 -10^6) were lysed as recommended in the protocol supplied by Oncor. Cell lysates containing 200 cell equivalents were preincubated at 25° C. for 30 minutes with PNA (0 to 100 μM, diluted in 10 mM Tris pH 8.3 and 10 μg ml^-1 bovine serum albumin (BSA)). PNAs sometime aggregated upon prolonged storage, so PNA stocks were briefly heated to 55° C. prior to addition to assay mixtures to ensure reproducible inhibition. Following preincubation, TRAPeze reaction mixture (20 mM Tris-HCl, pH 8.3, 1.5 mM MgCl2, 63 mM KCl, 0.05% Tween 20, 1 mM EGTA, and 0.01% BSA, 50 μM dNTPs, and primer mix supplied in the kit) was added directly to the mixture of PNA and cell extract. This reaction was incubated at 25° C. for 30 minutes to allow telomerase to elongate the TS primer. […] The tubes were transferred to a PCR thermocycler, and a two-step cycle (30 sec 94° C. and 30 sec 60° C.) was performed 27 times. Samples were analyzed using nondenaturing polyacrylamide gel electrophoresis.
Telomerase products and an internal PCR control were quantitated by phosphorimager analysis (Molecular Dynamics). The lanes were divided into one region encompassing the telomerase products and another including the internal standard signal. The radioisotope density was integrated for each area, and the ratio of telomerase product to internal standard was determined. This value was normalized to a positive control (no PNA added) where the ratio of telomerase products to internal standard was assigned 100% activity. The extent inhibition was plotted against the final PNA concentration used in the preincubation reaction, and these graphs were used to estimate the IC50 values.
These PNAs were incubated with telomerase-containing cell extracts derived from a human immortal primary breast epithelial cell line (HME50-5) and assayed their influence on telomerase activity using the telomere repeat amplification protocol (TRAP) (Holt et al., supra).

human telomerase [3] = test: Km app of telomerase for TS primer (TRAP assay with varied TS primer); type: biochemical; settings: TS primer 0 to 60 nM, 30 min at 25° C.; read-out: apparent binding constant, Km app, of telomerase for TS primer
Procedure: Telomerase assays were performed essentially as described above with slight modifications. Both the TS and CX primers (0.1 μg) were placed below the wax barrier and the concentration of TS primer was varied from 0 nM to 60 nM, above the wax barrier, in the reaction mixture. The reaction was allowed to proceed for 30 minutes at 25° C. followed by PCR as described. The products were quantitated as described with telomerase activity relative to control plotted versus the TS primer concentration.
To put the efficiency of inhibition into context, the affinity of the TS primer for telomerase was determined. Primer affinity of telomerase was determined by monitoring the level of telomerase activity as a function of concentration of the TS primer. The TS primer is complementary to only three bases of the RNA template of the hTR, and was not initially expected to bind tightly to telomerase. The TRAP assay was performed as described, except that the concentration of the TS primer above the wax barrier was varied from 0 to 60 nM. The concentration of TS primer below the wax barrier was varied to keep the total concentration constant.

Row | Substance | Tm ° C., Table 2 [1] [°C] | Tm ° C., Table 2 ([1]; listed as 4) [°C] | IC50 (human telomerase [2]; read-out: IC50 (μM), Table 2) [µM] | IC50 (human telomerase [2]; read-out: IC50 for inhibition of telomerase (text)) [µM] | Km (human telomerase [3]) [nM]
1 | PNA 4: PNA, sequence GGGTTAGACAA | 67 | 71 | 0.01 | 0.01 | 
2 | PNA 15: PNA, sequence GCCCTTCTCAG (all peptide nucleic acid (PNA)) | 56 |  | 0.5 |  | 
3 | TS primer: oligonucleotide primer that can be extended by telomerase, 5'-AATCCGTCGAGCAGAGTT-3' (further chemistry not given here) |  |  |  |  | 8
